Source: PMC7407272, “Induction of Lysosome Membrane Permeabilization as a Therapeutic Strategy to Target Pancreatic Cancer Stem Cells” (Cancers, 2020)

Columns and labels:
Assay in all cases: KINOMEscan
TLK2 = target: T1, TLK2 (Homo sapiens, UniProt Q86UE8); format: binding; conditions: read-out: % Ctrl
T1 construct: purchased DiscoveRx KINOMEscan

RIPK5 = target: T2, RIPK5 (Homo sapiens, UniProt Q6XUX3); format: binding; conditions: read-out: % Ctrl
T2 construct: purchased DiscoveRx KINOMEscan

EGFR(G719S) = target: T3, EGFR(G719S) (Homo sapiens, UniProt P00533, G719S); format: binding; conditions: read-out: % Ctrl
T3 construct: purchased DiscoveRx KINOMEscan
T3 sequence (P00533 25-1210 G719S): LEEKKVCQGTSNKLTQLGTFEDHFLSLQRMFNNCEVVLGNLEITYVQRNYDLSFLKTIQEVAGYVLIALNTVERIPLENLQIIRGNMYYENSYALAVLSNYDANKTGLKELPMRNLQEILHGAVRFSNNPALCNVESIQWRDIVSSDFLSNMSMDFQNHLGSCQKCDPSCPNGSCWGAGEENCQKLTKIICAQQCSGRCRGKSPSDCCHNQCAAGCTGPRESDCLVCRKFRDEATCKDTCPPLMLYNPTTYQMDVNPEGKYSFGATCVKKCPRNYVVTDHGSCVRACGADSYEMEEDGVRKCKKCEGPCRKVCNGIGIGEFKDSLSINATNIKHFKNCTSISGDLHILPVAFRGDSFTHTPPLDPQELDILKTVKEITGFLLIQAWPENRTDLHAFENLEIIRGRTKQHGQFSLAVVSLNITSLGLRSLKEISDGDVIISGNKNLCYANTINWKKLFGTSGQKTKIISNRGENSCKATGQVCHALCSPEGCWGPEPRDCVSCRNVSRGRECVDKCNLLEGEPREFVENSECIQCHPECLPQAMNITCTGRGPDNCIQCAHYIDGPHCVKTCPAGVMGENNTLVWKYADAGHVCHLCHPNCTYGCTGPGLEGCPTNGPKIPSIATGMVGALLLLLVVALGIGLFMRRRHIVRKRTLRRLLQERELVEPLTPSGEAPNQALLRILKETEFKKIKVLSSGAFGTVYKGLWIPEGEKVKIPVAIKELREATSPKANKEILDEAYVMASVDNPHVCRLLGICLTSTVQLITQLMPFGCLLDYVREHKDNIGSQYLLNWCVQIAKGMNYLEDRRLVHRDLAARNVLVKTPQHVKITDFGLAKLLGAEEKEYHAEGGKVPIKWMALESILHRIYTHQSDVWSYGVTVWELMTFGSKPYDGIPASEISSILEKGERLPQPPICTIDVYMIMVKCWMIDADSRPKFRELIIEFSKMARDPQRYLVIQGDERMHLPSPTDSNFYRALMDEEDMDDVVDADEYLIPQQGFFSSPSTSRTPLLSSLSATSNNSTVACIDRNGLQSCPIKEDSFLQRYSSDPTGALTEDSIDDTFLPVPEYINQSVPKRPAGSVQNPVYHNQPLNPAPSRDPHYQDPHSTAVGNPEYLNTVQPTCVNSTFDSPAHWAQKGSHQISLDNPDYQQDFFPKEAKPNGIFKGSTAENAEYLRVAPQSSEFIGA

LYN = target: T4, LYN (Homo sapiens, UniProt P07948); format: binding; conditions: read-out: % Ctrl
T4 construct: purchased DiscoveRx KINOMEscan

RIOK3 = target: T5, RIOK3 (Homo sapiens, UniProt O14730); format: binding; conditions: read-out: % Ctrl
T5 construct: purchased DiscoveRx KINOMEscan

ABL1(F317I)-P = target: T6, ABL1(F317I)-P (Homo sapiens, UniProt P00519, F317I); format: binding; conditions: read-out: % Ctrl
T6 construct: purchased DiscoveRx KINOMEscan

RAF1 = target: T7, RAF1 (Homo sapiens, UniProt P04049); format: binding; conditions: read-out: % Ctrl
T7 construct: purchased DiscoveRx KINOMEscan

RET(V804M) = target: T8, RET(V804M) (Homo sapiens, UniProt P07949, V804M); format: binding; conditions: read-out: % Ctrl
T8 construct: purchased DiscoveRx KINOMEscan

CSF1R-autoi. = target: T9, CSF1R-autoi. (Homo sapiens, UniProt P07333); format: binding; conditions: read-out: % Ctrl
T9 construct: purchased DiscoveRx KINOMEscan

BRSK2 = target: T10, BRSK2 (Homo sapiens, UniProt Q8IWQ3); format: binding; conditions: read-out: % Ctrl
T10 construct: purchased DiscoveRx KINOMEscan

FYN = target: T11, FYN (Homo sapiens, UniProt P06241); format: binding; conditions: read-out: % Ctrl
T11 construct: purchased DiscoveRx KINOMEscan

CAMKK1 = target: T12, CAMKK1 (Homo sapiens, UniProt Q8N5S9); format: binding; conditions: read-out: % Ctrl
T12 construct: purchased DiscoveRx KINOMEscan

EGFR(L858R) = target: T13, EGFR(L858R) (Homo sapiens, UniProt P00533, L858R); format: binding; conditions: read-out: % Ctrl
T13 construct: purchased DiscoveRx KINOMEscan

ABL1(Y253F)-P = target: T14, ABL1(Y253F)-P (Homo sapiens, UniProt P00519, Y253F); format: binding; conditions: read-out: % Ctrl
T14 construct: purchased DiscoveRx KINOMEscan

IRAK3 = target: T15, IRAK3 (Homo sapiens, UniProt Q9Y616); format: binding; conditions: read-out: % Ctrl
T15 construct: purchased DiscoveRx KINOMEscan

MET(M1250T) = target: T16, MET(M1250T) (Homo sapiens, UniProt P08581, M1250T); format: binding; conditions: read-out: % Ctrl
T16 construct: purchased DiscoveRx KINOMEscan

TESK1 = target: T17, TESK1 (Homo sapiens, UniProt Q15569); format: binding; conditions: read-out: % Ctrl
T17 construct: purchased DiscoveRx KINOMEscan

CDK4 = target: T18, CDK4 (Homo sapiens, UniProt P11802); format: binding; conditions: read-out: % Ctrl
T18 construct: purchased DiscoveRx KINOMEscan
T18 sequence (P11802 whole entry): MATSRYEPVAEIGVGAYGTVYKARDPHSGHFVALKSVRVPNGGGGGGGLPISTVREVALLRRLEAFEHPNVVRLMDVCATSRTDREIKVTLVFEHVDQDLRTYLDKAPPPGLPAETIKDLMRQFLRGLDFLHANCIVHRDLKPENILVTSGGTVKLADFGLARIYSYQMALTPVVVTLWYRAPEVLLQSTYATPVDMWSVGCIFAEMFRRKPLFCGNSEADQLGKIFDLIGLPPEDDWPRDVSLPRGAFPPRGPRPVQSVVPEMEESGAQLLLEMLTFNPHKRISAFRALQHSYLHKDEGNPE

TRKA = target: T19, TRKA (Homo sapiens, UniProt P04629); format: binding; conditions: read-out: % Ctrl
T19 construct: purchased DiscoveRx KINOMEscan

FLT3(D835H) = target: T20, FLT3(D835H) (Homo sapiens, UniProt P36888, D835H); format: binding; conditions: read-out: % Ctrl
T20 construct: purchased DiscoveRx KINOMEscan

LOK = target: T21, LOK (Homo sapiens, UniProt O94804); format: binding; conditions: read-out: % Ctrl
T21 construct: purchased DiscoveRx KINOMEscan
T21 sequence (O94804 whole entry): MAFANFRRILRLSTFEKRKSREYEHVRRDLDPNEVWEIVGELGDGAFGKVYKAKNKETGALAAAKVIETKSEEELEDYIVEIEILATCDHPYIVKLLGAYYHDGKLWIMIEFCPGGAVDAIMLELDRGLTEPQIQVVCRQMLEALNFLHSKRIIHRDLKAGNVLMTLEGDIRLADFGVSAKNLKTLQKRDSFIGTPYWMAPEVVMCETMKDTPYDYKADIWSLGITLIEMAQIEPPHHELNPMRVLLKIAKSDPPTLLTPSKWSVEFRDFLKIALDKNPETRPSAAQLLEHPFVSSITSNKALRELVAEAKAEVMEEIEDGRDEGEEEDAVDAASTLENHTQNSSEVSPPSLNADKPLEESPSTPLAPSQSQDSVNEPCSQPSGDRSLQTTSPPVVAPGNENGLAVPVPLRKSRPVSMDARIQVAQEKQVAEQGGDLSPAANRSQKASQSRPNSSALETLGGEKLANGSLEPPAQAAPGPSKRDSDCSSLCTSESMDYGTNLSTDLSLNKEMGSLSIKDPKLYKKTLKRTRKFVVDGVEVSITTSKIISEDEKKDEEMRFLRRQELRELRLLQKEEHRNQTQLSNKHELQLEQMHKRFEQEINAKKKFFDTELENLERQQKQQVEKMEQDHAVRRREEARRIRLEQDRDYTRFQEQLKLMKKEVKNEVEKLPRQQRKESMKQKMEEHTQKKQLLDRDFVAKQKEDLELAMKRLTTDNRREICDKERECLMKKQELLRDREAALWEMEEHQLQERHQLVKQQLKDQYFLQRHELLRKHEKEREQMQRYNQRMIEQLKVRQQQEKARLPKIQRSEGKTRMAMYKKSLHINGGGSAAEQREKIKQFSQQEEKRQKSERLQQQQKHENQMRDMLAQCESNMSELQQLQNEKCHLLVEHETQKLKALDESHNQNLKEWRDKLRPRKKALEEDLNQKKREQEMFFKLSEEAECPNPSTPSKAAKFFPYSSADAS

SLK = target: T22, SLK (Homo sapiens, UniProt Q9H2G2); format: binding; conditions: read-out: % Ctrl
T22 construct: purchased DiscoveRx KINOMEscan

MKNK2 = target: T23, MKNK2 (Homo sapiens, UniProt Q9HBH9); format: binding; conditions: read-out: % Ctrl
T23 construct: purchased DiscoveRx KINOMEscan

BMPR2 = target: T24, BMPR2 (Homo sapiens, UniProt Q13873); format: binding; conditions: read-out: % Ctrl
T24 construct: purchased DiscoveRx KINOMEscan
T24 sequence (Q13873 27-1038): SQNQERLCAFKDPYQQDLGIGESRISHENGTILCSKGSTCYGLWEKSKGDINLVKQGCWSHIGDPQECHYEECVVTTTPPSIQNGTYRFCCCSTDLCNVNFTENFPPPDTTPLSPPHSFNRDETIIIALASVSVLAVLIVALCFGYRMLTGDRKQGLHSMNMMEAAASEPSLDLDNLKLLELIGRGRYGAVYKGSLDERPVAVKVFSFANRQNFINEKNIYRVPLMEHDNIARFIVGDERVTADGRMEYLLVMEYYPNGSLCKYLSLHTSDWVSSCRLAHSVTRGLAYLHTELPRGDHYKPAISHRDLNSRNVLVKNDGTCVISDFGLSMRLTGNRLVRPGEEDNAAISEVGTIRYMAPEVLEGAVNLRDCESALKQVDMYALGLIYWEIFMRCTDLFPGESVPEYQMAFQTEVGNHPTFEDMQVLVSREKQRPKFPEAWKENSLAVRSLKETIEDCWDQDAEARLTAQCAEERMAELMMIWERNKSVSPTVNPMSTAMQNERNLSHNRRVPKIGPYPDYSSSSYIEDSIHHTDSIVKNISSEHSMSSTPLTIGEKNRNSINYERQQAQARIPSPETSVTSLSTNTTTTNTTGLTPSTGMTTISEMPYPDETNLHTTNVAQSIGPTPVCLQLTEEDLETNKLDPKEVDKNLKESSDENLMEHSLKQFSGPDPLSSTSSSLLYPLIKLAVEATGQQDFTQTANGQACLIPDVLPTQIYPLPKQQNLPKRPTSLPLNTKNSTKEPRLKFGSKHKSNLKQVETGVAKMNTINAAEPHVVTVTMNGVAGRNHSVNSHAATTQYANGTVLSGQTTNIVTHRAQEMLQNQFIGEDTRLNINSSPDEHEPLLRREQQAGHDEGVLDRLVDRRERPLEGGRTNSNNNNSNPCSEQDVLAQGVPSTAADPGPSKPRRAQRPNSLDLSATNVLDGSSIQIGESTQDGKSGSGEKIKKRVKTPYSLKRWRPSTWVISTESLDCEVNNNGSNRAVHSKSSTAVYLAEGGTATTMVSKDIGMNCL

CDK4-cyclinD1 = target: T25, CDK4-cyclinD1 (Homo sapiens, UniProt P11802); format: binding; conditions: read-out: % Ctrl
T25 construct: purchased DiscoveRx KINOMEscan

PRKD1 = target: T26, PRKD1 (Homo sapiens, UniProt Q15139); format: binding; conditions: read-out: % Ctrl
T26 construct: purchased DiscoveRx KINOMEscan

BRSK1 = target: T27, BRSK1 (Homo sapiens, UniProt Q8TDC3); format: binding; conditions: read-out: % Ctrl
T27 construct: purchased DiscoveRx KINOMEscan

FLT3(ITD,F691L) = format: binding, human; conditions: 1 µM
AURKA = target: T28, AURKA (Homo sapiens, UniProt O14965); format: binding; conditions: read-out: % Ctrl
T28 construct: purchased DiscoveRx KINOMEscan
T28 sequence (O14965 whole entry): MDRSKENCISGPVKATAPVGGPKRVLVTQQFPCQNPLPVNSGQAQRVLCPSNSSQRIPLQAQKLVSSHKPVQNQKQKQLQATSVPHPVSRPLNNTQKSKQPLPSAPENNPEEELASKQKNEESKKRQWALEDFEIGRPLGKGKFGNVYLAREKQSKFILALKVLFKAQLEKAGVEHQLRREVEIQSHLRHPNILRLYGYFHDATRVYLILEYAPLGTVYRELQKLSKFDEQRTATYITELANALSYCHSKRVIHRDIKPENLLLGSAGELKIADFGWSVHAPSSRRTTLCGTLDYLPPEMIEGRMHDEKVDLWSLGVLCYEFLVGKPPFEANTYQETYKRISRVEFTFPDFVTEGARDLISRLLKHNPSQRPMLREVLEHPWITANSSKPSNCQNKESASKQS

FLT3(ITD,D835V) = format: binding, human; conditions: 1 µM
CAMK1G = target: T29, CAMK1G (Homo sapiens, UniProt Q96NX5); format: binding; conditions: read-out: % Ctrl
T29 construct: purchased DiscoveRx KINOMEscan

ERBB3 = target: T30, ERBB3 (Homo sapiens, UniProt P21860); format: binding; conditions: read-out: % Ctrl
T30 construct: purchased DiscoveRx KINOMEscan

EPHB1 = target: T31, EPHB1 (Homo sapiens, UniProt P54762); format: binding; conditions: read-out: % Ctrl
T31 construct: purchased DiscoveRx KINOMEscan

INSRR = target: T32, INSRR (Homo sapiens, UniProt P14616); format: binding; conditions: read-out: % Ctrl
T32 construct: purchased DiscoveRx KINOMEscan

EGFR = target: T33, EGFR (Homo sapiens, UniProt P00533); format: binding; conditions: read-out: % Ctrl
T33 construct: purchased DiscoveRx KINOMEscan
T33 sequence (P00533 25-1210): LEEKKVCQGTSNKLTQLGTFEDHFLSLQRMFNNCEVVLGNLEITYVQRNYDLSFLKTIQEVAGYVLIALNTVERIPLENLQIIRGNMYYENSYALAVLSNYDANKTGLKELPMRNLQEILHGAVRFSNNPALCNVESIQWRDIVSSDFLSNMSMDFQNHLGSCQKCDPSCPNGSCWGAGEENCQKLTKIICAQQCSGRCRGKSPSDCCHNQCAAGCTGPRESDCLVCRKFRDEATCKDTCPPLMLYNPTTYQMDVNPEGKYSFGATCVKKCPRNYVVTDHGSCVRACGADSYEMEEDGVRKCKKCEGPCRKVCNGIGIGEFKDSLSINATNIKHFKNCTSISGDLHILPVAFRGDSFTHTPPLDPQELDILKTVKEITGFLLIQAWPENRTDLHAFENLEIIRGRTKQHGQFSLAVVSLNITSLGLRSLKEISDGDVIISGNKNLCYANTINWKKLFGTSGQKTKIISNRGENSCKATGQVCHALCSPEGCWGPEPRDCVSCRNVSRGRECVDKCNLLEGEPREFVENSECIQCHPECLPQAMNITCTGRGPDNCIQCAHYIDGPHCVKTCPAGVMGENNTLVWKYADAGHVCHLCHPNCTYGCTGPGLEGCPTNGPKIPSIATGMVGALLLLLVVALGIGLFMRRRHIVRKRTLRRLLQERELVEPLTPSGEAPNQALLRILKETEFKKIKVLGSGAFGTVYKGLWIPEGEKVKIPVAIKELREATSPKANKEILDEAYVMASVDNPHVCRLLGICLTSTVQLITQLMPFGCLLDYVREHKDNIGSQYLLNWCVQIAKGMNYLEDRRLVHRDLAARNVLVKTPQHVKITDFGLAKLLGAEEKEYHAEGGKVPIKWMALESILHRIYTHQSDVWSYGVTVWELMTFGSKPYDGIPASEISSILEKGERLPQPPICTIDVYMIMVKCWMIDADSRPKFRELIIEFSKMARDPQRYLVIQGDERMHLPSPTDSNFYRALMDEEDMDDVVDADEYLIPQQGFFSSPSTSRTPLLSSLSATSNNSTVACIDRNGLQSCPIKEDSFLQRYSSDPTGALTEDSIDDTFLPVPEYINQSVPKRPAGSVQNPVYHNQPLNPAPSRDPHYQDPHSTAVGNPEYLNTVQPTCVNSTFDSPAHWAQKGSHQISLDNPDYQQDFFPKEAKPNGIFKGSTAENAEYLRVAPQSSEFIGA

DCAMKL3 = target: T34, DCAMKL3 (Homo sapiens, UniProt Q9C098); format: binding; conditions: read-out: % Ctrl
T34 construct: purchased DiscoveRx KINOMEscan

SNARK = target: T35, SNARK (Homo sapiens, UniProt Q9H093); format: binding; conditions: read-out: % Ctrl
T35 construct: purchased DiscoveRx KINOMEscan

DDR2 = target: T36, DDR2 (Homo sapiens, UniProt Q16832); format: binding; conditions: read-out: % Ctrl
T36 construct: purchased DiscoveRx KINOMEscan

FLT3(D835V) = target: T37, FLT3(D835V) (Homo sapiens, UniProt P36888, D835V); format: binding; conditions: read-out: % Ctrl
T37 construct: purchased DiscoveRx KINOMEscan

ABL1-P = target: T38, ABL1-P (Homo sapiens, UniProt P00519); format: binding; conditions: read-out: % Ctrl
T38 construct: purchased DiscoveRx KINOMEscan

DMPK = target: T39, DMPK (Homo sapiens, UniProt Q09013); format: binding; conditions: read-out: % Ctrl
T39 construct: purchased DiscoveRx KINOMEscan

PIK3CA(E545A) = target: T40, PIK3CA(E545A) (Homo sapiens, UniProt P42336, E545A); format: binding; conditions: read-out: % Ctrl
T40 construct: purchased DiscoveRx KINOMEscan

## CN1CCC(CNc2ccc3ncc(C(=O)Nc4cccc(OC(F)(F)F)c4)n3n2)CC1 [Cpd 2]
TLK2
  remaining binding at 1 µM: 100%
RIPK5
  remaining binding at 1 µM: 84%
EGFR(G719S)
  remaining binding at 1 µM: 100%
LYN
  remaining binding at 1 µM: 98%
RIOK3
  remaining binding at 1 µM: 78%
ABL1(F317I)-P
  remaining binding at 1 µM: 94%
RAF1
  remaining binding at 1 µM: 100%
RET(V804M)
  remaining binding at 1 µM: 97%
CSF1R-autoi.
  remaining binding at 1 µM: 88%
BRSK2
  remaining binding at 1 µM: 100%
FYN
  remaining binding at 1 µM: 96%
CAMKK1
  remaining binding at 1 µM: 94%
EGFR(L858R)
  remaining binding at 1 µM: 94%
ABL1(Y253F)-P
  remaining binding at 1 µM: 100%
IRAK3
  remaining binding at 1 µM: 100%
MET(M1250T)
  remaining binding at 1 µM: 100%
TESK1
  remaining binding at 1 µM: 90%
CDK4
  remaining binding at 1 µM: 100%
TRKA
  remaining binding at 1 µM: 82%
FLT3(D835H)
  remaining binding at 1 µM: 74%
LOK
  remaining binding at 1 µM: 90%
SLK
  remaining binding at 1 µM: 79%
MKNK2
  remaining binding at 1 µM: 96%
BMPR2
  remaining binding at 1 µM: 87%
CDK4-cyclinD1
  remaining binding at 1 µM: 100%
PRKD1
  remaining binding at 1 µM: 98%
BRSK1
  remaining binding at 1 µM: 100%
FLT3(ITD,F691L)
  % Ctrl: 34%
AURKA
  remaining binding at 1 µM: 96%
FLT3(ITD,D835V)
  % Ctrl: 9.1%
CAMK1G
  remaining binding at 1 µM: 92%
ERBB3
  remaining binding at 1 µM: 100%
EPHB1
  remaining binding at 1 µM: 97%
INSRR
  remaining binding at 1 µM: 94%
EGFR
  remaining binding at 1 µM: 94%
DCAMKL3
  remaining binding at 1 µM: 100%
SNARK
  remaining binding at 1 µM: 89%
DDR2
  remaining binding at 1 µM: 89%
FLT3(D835V)
  remaining binding at 1 µM: 0.45%
ABL1-P
  remaining binding at 1 µM: 95%
DMPK
  remaining binding at 1 µM: 88%
PIK3CA(E545A)
  remaining binding at 1 µM: 100%
